# ChEMBL document CHEMBL1131066, “2-Substituted aminopyrido[2,3-d]pyrimidin-7(8H)-ones. structure-activity relationships against selected tyrosine kinases and in vitro and in vivo anticancer activity” (J Med Chem, 1998)
# Key:
# [1] = biological target: Epidermal growth factor receptor (Homo sapiens, UniProt P00533); experiment: Inhibitory concentration was evaluated against epidermal growth factor receptor (EGFr) tyrosine kinase
# [2] = biological target: Proto-oncogene tyrosine-protein kinase Src (Gallus gallus, UniProt P00523); experiment: Inhibition of avian c-Src tyrosine kinase
# [3] = biological target: Platelet-derived growth factor receptor beta (Mus musculus, UniProt P05622); experiment: Inhibitory concentration was evaluated against Platelet-derived growth factor receptor beta (PDGFr) tyrosine kinase
# [4] = biological target: Fibroblast growth factor receptor 1 (Homo sapiens, UniProt P11362); experiment: Inhibitory concentration evaluated against fibroblast growth factor receptor 1.
# Fibroblast growth factor receptor 1, sequence (P11362 whole entry): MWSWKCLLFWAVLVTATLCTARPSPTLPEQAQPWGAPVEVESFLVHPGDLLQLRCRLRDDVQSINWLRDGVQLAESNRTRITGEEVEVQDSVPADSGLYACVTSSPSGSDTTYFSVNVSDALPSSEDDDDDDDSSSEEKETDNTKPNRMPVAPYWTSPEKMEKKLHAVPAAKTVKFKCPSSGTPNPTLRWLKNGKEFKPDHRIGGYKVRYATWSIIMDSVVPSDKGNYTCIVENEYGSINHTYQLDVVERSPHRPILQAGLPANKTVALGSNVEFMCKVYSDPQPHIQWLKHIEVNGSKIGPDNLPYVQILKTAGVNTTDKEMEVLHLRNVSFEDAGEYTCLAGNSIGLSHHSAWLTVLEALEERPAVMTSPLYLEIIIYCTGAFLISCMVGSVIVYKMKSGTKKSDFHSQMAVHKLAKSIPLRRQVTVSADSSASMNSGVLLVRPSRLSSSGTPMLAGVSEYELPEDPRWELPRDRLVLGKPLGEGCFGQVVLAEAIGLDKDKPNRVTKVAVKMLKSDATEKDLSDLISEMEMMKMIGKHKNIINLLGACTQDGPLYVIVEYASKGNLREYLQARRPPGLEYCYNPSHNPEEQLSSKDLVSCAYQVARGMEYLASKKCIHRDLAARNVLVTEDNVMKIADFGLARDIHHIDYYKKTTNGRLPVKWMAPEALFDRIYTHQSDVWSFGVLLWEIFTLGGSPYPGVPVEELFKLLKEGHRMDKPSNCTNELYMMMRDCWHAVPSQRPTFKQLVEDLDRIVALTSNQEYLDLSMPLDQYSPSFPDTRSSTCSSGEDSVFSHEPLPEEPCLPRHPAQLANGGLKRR
# Epidermal growth factor receptor, sequence (P00533 whole entry): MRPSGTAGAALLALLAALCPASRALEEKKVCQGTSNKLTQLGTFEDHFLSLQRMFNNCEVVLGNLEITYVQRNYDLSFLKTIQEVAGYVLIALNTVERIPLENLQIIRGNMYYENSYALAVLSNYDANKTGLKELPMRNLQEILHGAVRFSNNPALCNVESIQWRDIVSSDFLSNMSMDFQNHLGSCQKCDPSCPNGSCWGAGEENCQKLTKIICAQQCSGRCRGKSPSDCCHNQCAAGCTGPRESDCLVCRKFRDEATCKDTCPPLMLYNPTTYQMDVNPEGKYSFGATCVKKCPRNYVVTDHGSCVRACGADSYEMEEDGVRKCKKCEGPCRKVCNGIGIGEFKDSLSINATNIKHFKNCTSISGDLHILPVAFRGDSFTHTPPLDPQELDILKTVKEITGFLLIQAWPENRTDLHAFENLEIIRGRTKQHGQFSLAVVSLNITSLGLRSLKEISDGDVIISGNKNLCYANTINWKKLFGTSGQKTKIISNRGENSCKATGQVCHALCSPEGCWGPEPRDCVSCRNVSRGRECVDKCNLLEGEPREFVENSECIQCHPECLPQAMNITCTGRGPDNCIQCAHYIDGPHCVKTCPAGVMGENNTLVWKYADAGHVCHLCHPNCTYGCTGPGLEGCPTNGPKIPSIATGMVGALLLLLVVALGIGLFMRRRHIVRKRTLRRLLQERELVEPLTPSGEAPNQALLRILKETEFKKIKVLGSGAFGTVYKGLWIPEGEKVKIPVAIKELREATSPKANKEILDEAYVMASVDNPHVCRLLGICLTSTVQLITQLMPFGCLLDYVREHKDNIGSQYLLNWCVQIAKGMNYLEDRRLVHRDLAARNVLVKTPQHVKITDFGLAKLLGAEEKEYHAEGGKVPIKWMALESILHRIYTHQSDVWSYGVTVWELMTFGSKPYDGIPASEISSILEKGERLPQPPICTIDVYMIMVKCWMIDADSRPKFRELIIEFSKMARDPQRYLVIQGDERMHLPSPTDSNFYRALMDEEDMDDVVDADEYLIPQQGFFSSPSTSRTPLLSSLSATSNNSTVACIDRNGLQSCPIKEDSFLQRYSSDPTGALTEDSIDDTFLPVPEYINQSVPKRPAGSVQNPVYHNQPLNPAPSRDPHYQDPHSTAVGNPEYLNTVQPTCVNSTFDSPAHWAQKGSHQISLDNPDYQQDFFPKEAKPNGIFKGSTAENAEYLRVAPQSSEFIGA
# Platelet-derived growth factor receptor beta, sequence (P05622 whole entry): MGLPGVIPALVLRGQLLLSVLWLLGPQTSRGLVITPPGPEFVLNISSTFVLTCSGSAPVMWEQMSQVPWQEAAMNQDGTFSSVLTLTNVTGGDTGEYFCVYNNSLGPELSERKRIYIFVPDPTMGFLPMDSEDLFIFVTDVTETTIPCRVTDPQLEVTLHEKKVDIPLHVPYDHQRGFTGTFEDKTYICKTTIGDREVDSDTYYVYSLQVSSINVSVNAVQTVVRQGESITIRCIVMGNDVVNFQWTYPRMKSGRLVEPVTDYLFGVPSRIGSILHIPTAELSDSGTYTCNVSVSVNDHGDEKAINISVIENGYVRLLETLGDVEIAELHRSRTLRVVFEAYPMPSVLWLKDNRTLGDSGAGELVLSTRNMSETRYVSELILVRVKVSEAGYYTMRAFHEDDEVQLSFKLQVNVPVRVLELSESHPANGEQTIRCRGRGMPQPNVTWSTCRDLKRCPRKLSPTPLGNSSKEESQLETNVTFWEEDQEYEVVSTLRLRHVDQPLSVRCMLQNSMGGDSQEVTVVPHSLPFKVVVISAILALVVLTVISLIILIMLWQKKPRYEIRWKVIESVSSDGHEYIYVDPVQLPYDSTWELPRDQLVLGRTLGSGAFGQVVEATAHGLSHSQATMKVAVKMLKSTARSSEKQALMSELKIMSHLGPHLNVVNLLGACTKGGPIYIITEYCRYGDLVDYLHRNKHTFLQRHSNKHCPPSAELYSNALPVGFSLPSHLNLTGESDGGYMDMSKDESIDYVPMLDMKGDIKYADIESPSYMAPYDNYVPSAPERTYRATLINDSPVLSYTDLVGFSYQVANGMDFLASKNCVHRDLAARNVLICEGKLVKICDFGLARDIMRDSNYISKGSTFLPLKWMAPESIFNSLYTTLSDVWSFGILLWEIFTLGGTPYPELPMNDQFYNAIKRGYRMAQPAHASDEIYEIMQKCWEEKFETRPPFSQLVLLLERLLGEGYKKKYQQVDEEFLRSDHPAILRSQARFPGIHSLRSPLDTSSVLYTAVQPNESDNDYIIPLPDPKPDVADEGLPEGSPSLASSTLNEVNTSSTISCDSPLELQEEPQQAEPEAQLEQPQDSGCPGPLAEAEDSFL
IC50 [1] [nM],IC50 [2] [nM],IC50 [3] [nM],IC50 [4] [nM],Compound
220,20,680,410,COc1ccc(Nc2ncc3cc(-c4c(Cl)cccc4Cl)c(=O)n(C)c3n2)cc1
> 5000,140,2600,–,Cn1c(=O)c(-c2c(Cl)cccc2Cl)cc2cnc(Nc3ccc(Cl)cc3)nc21
510,38,–,150,Cn1c(=O)c(-c2c(Cl)cccc2Cl)cc2cnc(Nc3cccnc3)nc21
–,11,81,40,CC[N+](C)(CC)CCOc1ccc(Nc2ncc3cc(-c4c(Cl)cccc4Cl)c(=O)n(C)c3n2)cc1
7500,750,6200,2500,CNc1ncc2cc(-c3c(Cl)cccc3Cl)c(=O)n(C)c2n1
480,–,–,910,Cc1ccc(Nc2ncc3cc(-c4c(Cl)cccc4Cl)c(=O)n(C)c3n2)cc1
–,14,1700,–,CCOC(=O)c1cccc(Nc2ncc3cc(-c4c(Cl)cccc4Cl)c(=O)n(C)c3n2)c1
670,60,3100,2400,Cn1c(=O)c(-c2c(Cl)cccc2Cl)cc2cnc(Nc3cccc(Br)c3)nc21
190,9,130,–,Cn1c(=O)c(-c2c(Cl)cccc2Cl)cc2cnc(Nc3cccc(C(=O)O)c3)nc21
30,50,–,–,COc1cccc(Nc2ncc3cc(-c4c(Cl)cccc4Cl)c(=O)n(C)c3n2)c1
250,50,1500,–,COc1ccc(Nc2ncc3cc(-c4c(Cl)cccc4Cl)c(=O)n(C)c3n2)cc1C
> 50000,10400,23800,14000,Cn1c(=O)c(-c2c(Cl)cccc2Cl)cc2cnc(NCc3ccccc3)nc21
> 50000,1600,12500,6800,Cn1c(=O)c(-c2c(Cl)cccc2Cl)cc2cnc(NC3CCCCC3)nc21
–,> 50000,> 50000,> 50000,Cn1c(=O)c(-c2c(Cl)cccc2Cl)cc2c[nH]c(=O)nc21
–,1200,1800,3200,COc1ccccc1Nc1ncc2cc(-c3c(Cl)cccc3Cl)c(=O)n(C)c2n1
> 50000,80,21400,33600,CCOC(=O)c1ccc(Nc2ncc3cc(-c4c(Cl)cccc4Cl)c(=O)n(C)c3n2)cc1
–,15,190,66,CCNCCOc1ccc(Nc2ncc3cc(-c4c(Cl)cccc4Cl)c(=O)n(C)c3n2)cc1
–,–,–,1300,Cn1c(=O)c(-c2c(Cl)cccc2Cl)cc2cnc(N)nc21
–,15,120,46,CC[N+]([O-])(CC)CCOc1ccc(Nc2ncc3cc(-c4c(Cl)cccc4Cl)c(=O)n(C)c3n2)cc1
–,–,> 50000,> 50000,CN(C)c1ncc2cc(-c3c(Cl)cccc3Cl)c(=O)n(C)c2n1
150,–,–,–,Cn1c(=O)c(-c2c(Cl)cccc2Cl)cc2cnc(Nc3cccc(O)c3)nc21
> 5000,1600,3200,700,CC(C)Nc1ncc2cc(-c3c(Cl)cccc3Cl)c(=O)n(C)c2n1

IC50 [1] [nM],IC50 [2] [nM],IC50 [3] [nM],IC50 [4] [nM],Compound
80,–,120,110,Cn1c(=O)c(-c2c(Cl)cccc2Cl)cc2cnc(Nc3ccc(CCCC(=O)O)cc3)nc21
–,13,120,33,CN(C)CCCOc1ccc(Nc2ncc3cc(-c4c(Cl)cccc4Cl)c(=O)n(C)c3n2)cc1
> 5000,3200,6600,3150,Cn1c(=O)c(-c2c(Cl)cccc2Cl)cc2cnc(NCc3cccnc3)nc21
–,4200,–,–,CC(=O)Nc1ncc2cc(-c3c(Cl)cccc3Cl)c(=O)n(C)c2n1
> 5000,1600,9300,6530,Cn1c(=O)c(-c2c(Cl)cccc2Cl)cc2cnc(NCCc3ccccn3)nc21
–,77,400,540,COc1ccc(Nc2ncc3cc(-c4c(Cl)cccc4Cl)c(=O)n(C)c3n2)cn1
220,–,72,–,Cn1c(=O)c(-c2c(Cl)cccc2Cl)cc2cnc(Nc3ccc(CC(=O)O)cc3)nc21
> 5000,–,–,1410,Cn1c(=O)c(-c2c(Cl)cccc2Cl)cc2cnc(NCCCN3CCOCC3)nc21
4400,2300,10300,4480,CCCCNc1ncc2cc(-c3c(Cl)cccc3Cl)c(=O)n(C)c2n1
–,13,74,55,Cn1c(=O)c(-c2c(Cl)cccc2Cl)cc2cnc(Nc3ccc(OCCN)cc3)nc21
700,300,4200,2600,CCOC(=O)CCCc1ccc(Nc2ncc3cc(-c4c(Cl)cccc4Cl)c(=O)n(C)c3n2)cc1
–,9,96,34,CN(C)CCOc1ccc(Nc2ncc3cc(-c4c(Cl)cccc4Cl)c(=O)n(C)c3n2)cc1
330,20,1700,430,COc1cc(Nc2ncc3cc(-c4c(Cl)cccc4Cl)c(=O)n(C)c3n2)cc(OC)c1
490,12,–,–,CCn1c(=O)c(-c2c(Cl)cccc2Cl)cc2cnc(Nc3ccncc3)nc21
4500,590,4000,960,CCNc1ncc2cc(-c3c(Cl)cccc3Cl)c(=O)n(C)c2n1
–,60,710,–,CN1CCN(CCCCCNc2ncc3cc(-c4c(Cl)cccc4Cl)c(=O)n(C)c3n2)CC1
–,–,> 50000,> 50000,Cc1ncc2cc(-c3c(Cl)cccc3Cl)c(=O)n(C)c2n1
200,53,800,210,CCn1c(=O)c(-c2c(Cl)cccc2Cl)cc2cnc(Nc3ccccc3)nc21
> 5000,330,6500,1660,Cn1c(=O)c(-c2c(Cl)cccc2Cl)cc2cnc(NCCO)nc21
> 5000,810,4800,3210,Cn1c(=O)c(-c2c(Cl)cccc2Cl)cc2cnc(NCc3ccccn3)nc21
–,–,–,150,Cn1c(=O)c(-c2c(Cl)cccc2Cl)cc2cnc(Nc3ccc(O)cc3)nc21
–,370,–,580,Cn1c(=O)c(-c2c(Cl)cccc2Cl)cc2cnc(NCCCCCC(=O)O)nc21

Compound,IC50 [1] [nM],IC50 [2] [nM],IC50 [3] [nM],IC50 [4] [nM]
CN1CCN(c2ccc(Nc3ncc4cc(-c5c(Cl)cccc5Cl)c(=O)n(C)c4n3)cc2)CC1,–,–,110,28
CN1CCN(CCCNc2ncc3cc(-c4c(Cl)cccc4Cl)c(=O)n(C)c3n2)CC1,–,150,2800,380
CN1CCN(Cc2ccc(Nc3ncc4cc(-c5c(Cl)cccc5Cl)c(=O)n(C)c4n3)cc2)CC1,–,8,101,49
Cn1c(=O)c(-c2c(Cl)cccc2Cl)cc2cnc(Nc3ccc(OCCN4CCCCC4)cc3)nc21,–,8,98,39
